Literature values, collected in US20260092079A1, “MANUFACTURE METHOD FOR AQUEOUS FORMULATION OF MANGANESE-CONTAINING COORDINATION COMPLEX, FORMULATION, AND METHOD OF TREATMENT” (GALERA LABS, LLC, priority 2019, published 2026).

Assays:
[1] = test system: VEGFr inhibitor-induced pulmonary disease; settings: rat model
oral mucositis = settings: head-and-neck cancer patients undergoing chemoradiation therapy
inflammation = settings: rat model
[2] = test system: experimental model of colitis; settings: rats
[3] = test system: radiation-induced oral mucositis; settings: hamster, acute radiation-induced oral mucositis
[4] = test system: collagen-induced arthritis; settings: rat
[5] = test system: lethal total body irradiation; settings: adult mice

[Cl][Mn][Cl].c1cc2nc(c1)CN[C@H]1CCCC[C@@H]1NCCN[C@H]1CCCC[C@@H]1NC2 [GC4419]
VEGFr inhibitor-induced pulmonary disease [1]: attenuate VEGFr inhibitor-induced pulmonary disease | Oral mucositis (oral mucositis): reduce oral mucositis

[Cl-].[Cl-].[Mn+2].c1cc2nc(c1)CN[C@@H]1CCCC[C@H]1NCCN[C@@H]1CCCC[C@H]1NC2 [GC4403]
Inflammation (inflammation): inhibit inflammation | Injury to the colon [2]: very significantly reduce the injury to the colon | Radiation damage [3]: attenuate the radiation damage | Joint disease [4]: prevent joint disease | Radiation damage [5]: attenuate the radiation damage
